Assay results published in patent US8420655B2, “Benzimidazole inhibitors of leukotriene production” (Boehringer Ingelheim International GmbH, priority 2009, dated 2013).

tested on: ApoE−/−xCD4dnTβRII mice; experiment: not given; details: via infusion, treated for four weeks; cited from earlier work

For `CC(C)c1ccc2c(c1)c(SC(C)(C)C)c(CC(C)(C)C(=O)O)n2Cc1ccc(Cl)cc1` [MK-886], the “decrease in plaque area in the aortic root” value is given as about 40%.

target: T1, recombinant human FLAP protein (Homo sapiens, UniProt P20292); experiment: FLAP binding assay, displacement of iodinated (125I) FLAP inhibitor, Scintillation Proximity Assay format; details: [125I]L-691,831 probe, membrane protein from sf9 cells; read-out: hFLAP binding IC50
T1 construct: made in house; host or cells: Sf9 insect cells (membrane fraction, 100,000 x g pellet)
T1 sequence (P20292 1-161): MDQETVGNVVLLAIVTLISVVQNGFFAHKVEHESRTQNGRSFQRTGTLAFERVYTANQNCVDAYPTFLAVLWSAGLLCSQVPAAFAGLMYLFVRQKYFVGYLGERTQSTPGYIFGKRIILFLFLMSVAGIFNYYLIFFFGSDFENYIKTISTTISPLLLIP
Experimental: Compounds are assessed for the ability to bind to FLAP in a binding assay that measures compound-specific displacement of an iodinated (^125I) FLAP inhibitor via a Scintillation Proximity Assay format (adapted from S. Charleson et al., Mol. Pharmacol., 1992, 41, 873-879).
Cell pellets produced from sf9 insect cells expressing recombinant human FLAP protein are resuspended in buffer A [15 mM Tris-HCl (pH 7.5), 2 mM MgCl2, 0.3 mM EDTA, 1 mM PMSF]. The cells are lysed with a Dounce homogenizer and the material is centrifuged at 10,000×g for 10 minutes. The supernatant is then collected and centrifuged at 100,000×g for 60 minutes. To prepare membrane protein for an assay, an aliquot of the 100,000×g pellet is resuspended in 1 ml of buffer A, Dounce homogenized, and finally subjected to polytron mixing (30 seconds). Membrane protein (25 μl, 5 μg) is mixed with WGA SPA beads (Amersham) and stirred for 1 h. To an assay plate (Perkin Elmer FlexiPlate) is added 25 μl of test compound prepared in Binding buffer [100 mM Tris (pH 7.5), 140 mM NaCl, 5% glycerol, 2 mM EDTA, 0.5 mM TCEP, 0.05% Tween 20], 25 μl of [^125I]L-691,831 (an iodinated analog of MK-591, Charleson et al. Mol. Pharmacol., 41, 873-879, 1992) and finally 50 μl of the bead/protein mixture. (final concentrations: beads, 200 μg/well; protein, 5 μg/well; [^125I] probe, 0 08 nM/well (17 nCi/well). The plates are shaken for 2 h before reading on a Microbeta plate reader. Non-specific binding is determined by the addition of 10 μM cold L-691,831 compound.

Compared with `CC(C)(C)n1c(-c2cc(C#N)ccc2-n2cncn2)nc2cc(-c3cnc(N)nc3)ccc21` [3-[5-(2-Amino-pyrimidin-5-yl)-1-tert-butyl-1H-benzimidazol-2-yl]-4-1,2,4-triazol-1-yl-benzonitrile], `CC(C)(C)n1c(-c2ccc(Cl)cc2-n2cncn2)nc2cc(-c3cnc(N)nc3)ccc21` [5-[1-tert-Butyl-2-(4-chloro-2-1,2,4-triazol-1-yl-phenyl)-1H-benzimidazol-5-yl]-pyrimidin-2-ylamine] is 1.8-fold lower in IC50: 3.1 nM for the first, 1.7 nM for the second.

`CC(C)(C)n1c(-c2cccc(F)c2-n2cncn2)nc2cc(-c3cnc(N)nc3)ccc21` [5-[1-tert-Butyl-2-(3-fluoro-2-1,2,4-triazol-1-yl-phenyl)-1H-benzimidazol-5-yl]-pyrimidin-2-ylamine] and `CC(C)Oc1ccc(-n2cncn2)c(-c2nc3cc(-c4cnc(N)nc4)ccc3n2C(C)(C)C)c1` [5-[1-tert-Butyl-2-(5-isopropoxy-2-1,2,4-triazol-1-yl-phenyl)-1H-benzimidazol-5-yl]-pyrimidin-2-ylamine] are within 1.5-fold of each other in IC50: 1.7 nM for the first, 2.2 nM for the second.

First: CC(C)(C)n1c(-c2cc(OC3CCOC3)ccc2-n2cncn2)nc2cc(-c3cnc(N)nc3)ccc21 (centres unmarked) [5-{1-tert-Butyl-2-[5-(tetrahydro-furan-3-yloxy)-2-1,2,4-triazol-1-yl-phenyl]-1H-benzimidazol-5-yl}-pyrimidin-2-ylamine]
Second: CC(C)(C)n1c(-c2ccc(OC3CCOC3)cc2-n2cncn2)nc2cc(-c3cnc(N)nc3)ccc21 (centres unmarked) [5-{1-tert-Butyl-2-[4-(tetrahydro-furan-3-yloxy)-2-1,2,4-triazol-1-yl-phenyl]-1H-benzimidazol-5-yl}-pyrimidin-2-ylamine]
The IC50 of the first is 1.5-fold lower: 6.9 nM for the first, 10.6 nM for the second. The first is the more potent here.

First: COC(=O)C(C)(C)Oc1ccc(-c2nc3cc(-c4cnc(N)nc4)ccc3n2C(C)(C)C)c(-n2cncn2)c1 [2-{4-[5-(2-Amino-pyrimidin-5-yl)-1-tert-butyl-1H-benzoimidazol-2-yl]-3-[1,2,4]triazol-1-yl-phenoxy}-2-methyl-propionic acid methyl ester]
Second: CCOC(=O)C(C)(C)COc1ccc(-c2nc3cc(-c4cnc(N)nc4)ccc3n2C(C)(C)C)c(-n2cncn2)c1 [3-{4-[5-(2-Amino-pyrimidin-5-yl)-1-tert-butyl-1H-benzoimidazol-2-yl]-3-[1,2,4]triazol-1-yl-phenoxy}-2,2-dimethyl-propionic acid ethyl ester]
The IC50 of the first is 2.7-fold higher: 7.2 nM for the first, 2.7 nM for the second. The second is the more potent here.

`Cc1ncn(-c2ccc(Cl)cc2-c2nc3cc(-c4cnc(N)nc4)ccc3n2C(C)(C)C)n1` [5-{1-tert-Butyl-2-[5-chloro-2-(3-methyl-1,2,4-triazol-1-yl)-phenyl]-1H-benzimidazol-5-yl}-pyrimidin-2-ylamine] and `Cc1ncn(-c2ccc(F)cc2-c2nc3cc(-c4cnc(N)nc4)ccc3n2C(C)(C)C)n1` [5-{1-tert-Butyl-2-[5-fluoro-2-(3-methyl-1,2,4-triazol-1-yl)-phenyl]-1H-benzimidazol-5-yl}-pyrimidin-2-ylamine] are the same in IC50: 1.4 nM for the first, 1.4 nM for the second.

First: Cc1nc(-c2ccccc2-c2nc3cc(-c4cnc(N)nc4)ccc3n2C(C)(C)C)n(C)n1 [5-{1-tert-Butyl-2-[2-(2,5-dimethyl-2H-1,2,4-triazol-3-yl)-phenyl]-1H-benzimidazol-5-yl}-pyrimidin-2-ylamine]
Second: Cn1ncnc1-c1ccc(Cl)cc1-c1nc2cc(-c3cnc(N)nc3)ccc2n1C(C)(C)C [5-{1-tert-Butyl-2-[5-chloro-2-(2-methyl-2H-1,2,4-triazol-3-yl)-phenyl]-1H-benzimidazol-5-yl}-pyrimidin-2-ylamine]
The IC50 of the first is 1.5-fold higher: 1.8 nM for the first, 1.2 nM for the second. The second is the more potent here.

`CC(C)NC(=O)Oc1ccc(-n2cncn2)c(-c2nc3cc(-c4cnc(N)nc4)ccc3n2C(C)(C)C)c1` [Isopropyl-carbamic acid 3-[5-(2-amino-pyrimidin-5-yl)-1-tert-butyl-1H-benzimidazol-2-yl]-4-1,2,4-triazol-1-yl-phenyl ester] and `CCNC(=O)Oc1ccc(-n2cncn2)c(-c2nc3cc(-c4cnc(N)nc4)ccc3n2C(C)(C)C)c1` [Ethyl-carbamic acid 3-[5-(2-amino-pyrimidin-5-yl)-1-tert-butyl-1H-benzimidazol-2-yl]-4-1,2,4-triazol-1-yl-phenyl ester] are within 1.5-fold of each other in IC50: 1.5 nM for the first, 1.1 nM for the second.

Going from `COc1ccc(-n2cccn2)c(-c2nc3cc(-c4cnc(N)nc4)ccc3n2C(C)(C)C)c1` [5-[1-tert-Butyl-2-(5-methoxy-2-pyrazol-1-yl-phenyl)-1H-benzimidazol-5-yl]-pyrimidin-2-ylamine] to `CC(C)(C)n1c(-c2cc(Cl)ccc2-n2cccn2)nc2cc(-c3cnc(N)nc3)ccc21` [5-[1-tert-Butyl-2-(5-chloro-2-pyrazol-1-yl-phenyl)-1H-benzimidazol-5-yl]-pyrimidin-2-ylamine], the IC50 falls from 5.2 nM to 1.3 nM (4-fold).

`Cn1cc(-c2ccc(-n3cncn3)c(-c3nc4cc(-c5cnc(N)nc5)ccc4n3C(C)(C)C)c2)cn1` [5-{1-tert-Butyl-2-[5-(1-methyl-1H-pyrazol-4-yl)-2-[1,2,4]triazol-1-yl-phenyl]-1H-benzoimidazol-5-yl}-pyrimidin-2-ylamine] and `COC(=O)c1ccc(-n2cncn2)c(-c2nc3cc(-c4cnc(N)nc4)ccc3n2C(C)(C)C)c1` [3-[5-(2-Amino-pyrimidin-5-yl)-1-tert-butyl-1H-benzoimidazol-2-yl]-4-[1,2,4]triazol-1-yl-benzoic acid methyl ester] are within 1.5-fold of each other in IC50: 2.4 nM for the first, 2.7 nM for the second.

Compared with `CCN(CC)C(=O)Oc1ccc(-n2cncn2)c(-c2nc3cc(-c4cnc(N)nc4)ccc3n2C(C)(C)C)c1` [Diethyl-carbamic acid 3-[5-(2-amino-pyrimidin-5-yl)-1-tert-butyl-1H-benzimidazol-2-yl]-4-1,2,4-triazol-1-yl-phenyl ester], `COc1ccc(-n2cccn2)c(-c2nc3cc(-c4cnc5[nH]ccc5c4)ccc3n2C(C)(C)C)c1` [1-tert-Butyl-2-(5-methoxy-2-pyrazol-1-yl-phenyl)-5-(1H-pyrrolo[2,3-b]pyridin-5-yl)-1H-benzimidazole] is 8-fold lower in IC50: 8.8 nM for the first, 1.1 nM for the second. The second is the more potent here.

tested on: biomarkers for myocardial infarction risk; experiment: not given; details: clinical trials; cited from earlier work

For `O=C(O)[C@@H](c1ccc(OCc2ccc3ccccc3n2)cc1)C1CCCC1` [DG-031], the “effect on biomarkers for myocardial infarction risk” value is given as “dose-dependent suppression of several biomarkers”.

tested on: apoE/LDL-R double knockout mice; experiment: not given; details: oral dosing, high-fat diet from 2 months of age to 6 months; cited from earlier work

In the case of `CC(C)c1ccc2c(c1)c(SC(C)(C)C)c(CC(C)(C)C(=O)O)n2Cc1ccc(Cl)cc1` [MK-886], the “decrease in plaque coverage in the aorta” value is given as 56%.

For `CC(C)c1ccc2c(c1)c(SC(C)(C)C)c(CC(C)(C)C(=O)O)n2Cc1ccc(Cl)cc1` [MK-886], the “decrease in plaque coverage in the aortic root” value is listed as 43%.

tested on: apoE-deficient mice; experiment: not given; details: cited from earlier work

For `C[C@H](C#Cc1ccc(Cc2ccc(F)cc2)s1)N(O)C(N)=O` [VIA-2291], the effect on atherosclerosis is given as “attenuate atherosclerosis”.

tested on: human glomerulonephritis; experiment: not given; details: clinical trial; cited from earlier work

For `CC(C)(C)Sc1c(CC(C)(C)C(=O)O)n(Cc2ccc(Cl)cc2)c2ccc(OCc3ccc4ccccc4n3)cc12` [MK-591], the effect on proteinuria is given as “reduce proteinuria”.
